Assay results: ChEMBL document CHEMBL1201862, “PubChem BioAssay data set” (2004)
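Dose response: 5 concentrations. Exposure: 48 h. Format: 96-well plates. Endpoint: linear interpolation; highest concentration if not reached. GI50 marks 50% less growth.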 The source made the active and inactive calls. Rule as the data show it: active = GI50 up to about 1.1 µM and inactive = higher.

Legend:
Test in all cases: inhibition of tumour cell growth, NCI panel, 48 h
HCT-15 = system: HCT-15
HT-29 = system: HT-29
SR = system: SR
NCI-H226 = system: NCI-H226
SK-OV-3 = system: SK-OV-3
SK-MEL-5 = system: SK-MEL-5
MOLT-4 = system: MOLT-4
SF-539 = system: SF-539
SK-MEL-28 = system: SK-MEL-28
HOP-62 = system: HOP-62
NCI-H23 = system: NCI-H23
T47D = system: T47D
Malme-3M = system: Malme-3M
UACC-257 = system: UACC-257
SNB-75 = system: SNB-75
CAKI-1 = system: CAKI-1
786-0 = system: 786-0
U-251 = system: U-251
HCC 2998 = system: HCC 2998
OVCAR-3 = system: OVCAR-3

| Structure (SMILES) | GI50 (HCT-15) [µM] | GI50 (HT-29) | GI50 (SR) | GI50 (NCI-H226) | GI50 (SK-OV-3) | GI50 (SK-MEL-5) | GI50 (MOLT-4) | GI50 (SF-539) | GI50 (SK-MEL-28) | GI50 (HOP-62) | GI50 (NCI-H23) | GI50 (T47D) | GI50 (Malme-3M) | GI50 (UACC-257) | GI50 (SNB-75) | GI50 (CAKI-1) | GI50 (786-0) | GI50 (U-251) | GI50 (HCC 2998) | GI50 (OVCAR-3) |
| --- | --- | --- | --- | --- | --- | --- | --- | --- | --- | --- | --- | --- | --- | --- | --- | --- | --- | --- | --- | --- |
| CCc1ccccc1NC(=O)/C=C/c1ccccc1 | > 100 | > 100 µM (inactive) | > 100 µM (inactive) | > 100 µM (inactive) | > 100 µM (inactive) | > 100 µM (inactive) | > 100 µM (inactive) | > 100 µM (inactive) | > 100 µM (inactive) | 49 µM (inactive) | > 100 µM (inactive) | > 100 µM (inactive) | > 100 µM (inactive) | > 100 µM (inactive) | > 100 µM (inactive) | > 100 µM (inactive) | > 100 µM (inactive) | 85.9 µM (inactive) | > 100 µM (inactive) | > 100 µM (inactive) |
| Cc1cnc2c(c1)C(=O)N(c1ccc(Oc3ccccc3)cc1)S2(=O)=O | > 100 | > 100 µM (inactive) | > 100 µM (inactive) | 59.6 µM (inactive) | > 100 µM (inactive) | > 100 µM (inactive) | > 100 µM (inactive) | > 100 µM (inactive) | > 100 µM (inactive) | > 100 µM (inactive) | > 100 µM (inactive) | > 100 µM (inactive) | 67.1 µM (inactive) | > 100 µM (inactive) | > 100 µM (inactive) | > 100 µM (inactive) | > 100 µM (inactive) | > 100 µM (inactive) | > 100 µM (inactive) | > 100 µM (inactive) |
| CN1CN(c2ccccc2)C2(CCN(CCC3COc4ccccc4O3)CC2)C1=O (stereo not given) | 24.8 | 3.88 µM (inactive) | 20.9 µM (inactive) | 27.9 µM (inactive) | 26.6 µM (inactive) | 12.9 µM (inactive) | 17 µM (inactive) | 18.8 µM (inactive) | 19.6 µM (inactive) | > 10 µM (inactive) | 30.4 µM (inactive) | 4.65 µM (inactive) | 19.5 µM (inactive) | 12.5 µM (inactive) | 38.2 µM (inactive) | 28.2 µM (inactive) | 36.4 µM (inactive) | 27.5 µM (inactive) | 8.07 µM (inactive) | 19.9 µM (inactive) |
| COc1c(Cl)c(=O)oc2ccc(Cl)cc12 | > 100 | > 100 µM (inactive) | > 100 µM (inactive) | > 100 µM (inactive) | > 100 µM (inactive) | > 100 µM (inactive) | > 100 µM (inactive) | > 100 µM (inactive) | > 100 µM (inactive) | > 100 µM (inactive) | > 100 µM (inactive) | > 100 µM (inactive) | > 100 µM (inactive) | > 100 µM (inactive) | 39.9 µM (inactive) | > 100 µM (inactive) | > 100 µM (inactive) | 60.7 µM (inactive) | > 100 µM (inactive) | > 100 µM (inactive) |
| COC1CC(OC2C(C)OC(OC3C(C)OC(OC4C(C)OC(O[C@H]5CC[C@@]6(C)C(=CC[C@]7(O)[C@@H]6C[C@@H](OC(=O)/C=C/c6ccccc6)[C@@]6(C)[C@]7(O)CC[C@@]6(O)C(C)=O)C5)CC4OC)CC3OC)CC2OC)OC(C)C1O (stereo not given in full) | > 12.5 | > 12.5 µM (inactive) | > 12.5 µM (inactive) | > 12.5 µM (inactive) | > 12.5 µM (inactive) | 11.4 µM (inactive) | > 12.5 µM (inactive) | > 12.5 µM (inactive) | > 12.5 µM (inactive) | > 12.5 µM (inactive) | > 12.5 µM (inactive) | > 12.5 µM (inactive) | > 12.5 µM (inactive) | > 12.5 µM (inactive) | > 12.5 µM (inactive) | > 12.5 µM (inactive) | > 12.5 µM (inactive) | > 12.5 µM (inactive) | > 12.5 µM (inactive) | 11 µM (inactive) |
| O=S(=O)(CC#CCS(=O)(=O)c1ccccc1)c1ccccc1 | 1.35 | 6.68 µM (inactive) | 2.66 µM (inactive) | 14.6 µM (inactive) | 13.4 µM (inactive) | 4.9 µM (inactive) | 0.959 µM (active) | 2.48 µM (inactive) | 7.46 µM (inactive) | 5.71 µM (inactive) | 2.98 µM (inactive) | 1.95 µM (inactive) | 1.9 µM (inactive) | 4.32 µM (inactive) | 1.48 µM (inactive) | 1.77 µM (inactive) | 0.973 µM (active) | 8.55 µM (inactive) | 18.7 µM (inactive) | 1.55 µM (inactive) |
| CC[C@@]1(O)C(=O)OCc2c1cc1n(c2=O)Cc2c-1nc1ccccc1c2/C=N\NC(=O)C(N)CCSC (stereo not given in full) | 0.39 | 0.266 µM (active) | < 0.01 µM (active) | < 0.016 µM (active) | < 0.0127 µM (active) | 0.0149 µM (active) | < 0.01 µM (active) | < 0.01 µM (active) | 1.03 µM (active) | < 0.01 µM (active) | < 0.01 µM (active) | < 0.01 µM (active) | 0.102 µM (active) | 0.228 µM (active) | < 0.01 µM (active) | < 0.01 µM (active) | < 0.01 µM (active) | < 0.01 µM (active) | 0.336 µM (active) | 0.352 µM (active) |
| CC(=O)Nc1ccc2c3c(cc(O)c2c1)N(C(=O)CCCC(=O)N1CC(CCl)c2c1cc(O)c1cc(NC(C)=O)ccc21)CC3CCl (stereo not given) | 0.0773 | 0.0125 µM (active) | < 0.01 µM (active) | < 0.01 µM (active) | < 0.011 µM (active) | 0.0108 µM (active) | < 0.01 µM (active) | 0.0223 µM (active) | 0.0201 µM (active) | < 0.01 µM (active) | < 0.01 µM (active) | < 0.01 µM (active) | 0.01 µM (active) | 0.0114 µM (active) | < 0.01 µM (active) | < 0.01 µM (active) | < 0.01 µM (active) | < 0.01 µM (active) | 0.0122 µM (active) | 0.0111 µM (active) |
| CCCCCCCCCCCCCCCCOP(=O)(O)OCC(NC(C)=O)C(=O)O (stereo not given) | 18.2 | > 100 µM (inactive) | 73.8 µM (inactive) | 76 µM (inactive) | > 100 µM (inactive) | > 100 µM (inactive) | 24.2 µM (inactive) | 32.4 µM (inactive) | > 100 µM (inactive) | 19.2 µM (inactive) | 33 µM (inactive) | > 100 µM (inactive) | > 100 µM (inactive) | 54.1 µM (inactive) | 20 µM (inactive) | 57 µM (inactive) | 73.3 µM (inactive) | 20 µM (inactive) | > 100 µM (inactive) | 98.2 µM (inactive) |
| Fc1ccc2nc3n(c2c1)C(c1c(F)cccc1F)SC3 (stereo not given) | 51.8 | 33.3 µM (inactive) | 18.4 µM (inactive) | > 100 µM (inactive) | 54.8 µM (inactive) | 26.7 µM (inactive) | 21.3 µM (inactive) | > 100 µM (inactive) | > 100 µM (inactive) | > 100 µM (inactive) | 55 µM (inactive) | 40.6 µM (inactive) | > 100 µM (inactive) | 47.8 µM (inactive) | 31.6 µM (inactive) | 35.2 µM (inactive) | > 100 µM (inactive) | 76.4 µM (inactive) | > 100 µM (inactive) | 54.8 µM (inactive) |
| Cc1cc(=O)oc2cc(O)ccc12 [HYMECROMONE] | > 100 | > 100 µM (inactive) | 69 µM (inactive) | > 100 µM (inactive) | > 100 µM (inactive) | > 100 µM (inactive) | > 100 µM (inactive) | > 100 µM (inactive) | > 100 µM (inactive) | > 100 µM (inactive) | > 100 µM (inactive) | > 100 µM (inactive) | > 100 µM (inactive) | > 100 µM (inactive) | 39.1 µM (inactive) | > 100 µM (inactive) | > 100 µM (inactive) | > 100 µM (inactive) | > 100 µM (inactive) | > 100 µM (inactive) |
